Measurements: PubChem BioAssay AID2060485 (Molecular Pharmacology Branch, DTP, NCI, 2025)

Tested on: A375 multi-cell spheroids with HUVEC/MSC, viability
Experiment: Anticancer human tumor A375 cell line growth inhibition [GQUAD];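 note: spheroids exposed to compounds for seven days before readout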
Conditions: for IC50: curve of first compound; for viability, T/C: stronger effect = lower value
Outline: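 Tumor cells were grown as complex spheroids with HUVEC endothelial cells and mesenchymal stem cells as stroma. G-quadruplex stabilizers were combined with targeted agents over half-log dilutions from near the clinical Cmax, or from 10 microM.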

[1] = second compound 0.0316 µM, first compound 0.0316 µM
[2] = second compound 0.0316 µM, first compound 0.1 µM
[3] = second compound 0.0316 µM, first compound 0.316 µM
[4] = second compound 0.0316 µM, first compound 1 µM
[5] = second compound 0.0316 µM, first compound 3.16 µM
[6] = second compound 0.0316 µM, first compound 10 µM
[7] = second compound 0.1 µM, first compound 0.0316 µM
[8] = second compound 0.1 µM, first compound 0.1 µM
[9] = second compound 0.1 µM, first compound 0.316 µM
[10] = second compound 0.1 µM, first compound 1 µM
[11] = second compound 0.1 µM, first compound 3.16 µM
[12] = second compound 0.1 µM, first compound 10 µM
[13] = second compound 0.316 µM, first compound 0.0316 µM
[14] = second compound 0.316 µM, first compound 0.1 µM
[15] = second compound 0.316 µM, first compound 0.316 µM
[16] = second compound 0.316 µM, first compound 1 µM
[17] = second compound 0.316 µM, first compound 3.16 µM
[18] = second compound 0.316 µM, first compound 10 µM
[19] = second compound 1 µM, first compound 0.0316 µM
[20] = second compound 1 µM, first compound 0.1 µM
[21] = second compound 1 µM, first compound 0.316 µM
[22] = second compound 1 µM, first compound 1 µM
[23] = second compound 1 µM, first compound 3.16 µM
[24] = second compound 1 µM, first compound 10 µM
[25] = second compound 3.16 µM, first compound 0.0316 µM
[26] = second compound 3.16 µM, first compound 0.1 µM
[27] = second compound 3.16 µM, first compound 0.316 µM
[28] = second compound 3.16 µM, first compound 1 µM
[29] = second compound 3.16 µM, first compound 3.16 µM
[30] = second compound 3.16 µM, first compound 10 µM
[31] = second compound 10 µM, first compound 0.0316 µM
[32] = second compound 10 µM, first compound 0.1 µM
[33] = second compound 10 µM, first compound 0.316 µM
[34] = second compound 10 µM, first compound 1 µM
[35] = second compound 10 µM, first compound 3.16 µM
[36] = second compound 10 µM, first compound 10 µM

With C=CC(=O)N1CCN(c2nc(=O)n(-c3c(C)ccnc3C(C)C)c3nc(-c4c(O)cccc4F)c(F)cc23)C(C)C1 (stereo unspecified) + Cc1[nH]c2ccc(F)cc2c1-c1nc2c3cccnc3c3ncccc3c2[nH]1 the IC50 (second compound 0.0316 µM) was over 10 µM, the IC50 (second compound 0.1 µM) was over 10 µM and the IC50 (second compound 0.316 µM) was over 10 µM. It also gave an IC50 (second compound 1 µM) of over 10 µM, an IC50 (second compound 3.16 µM) of over 10 µM and an IC50 (second compound 10 µM) of over 10 µM. For the same compound, the viability, T/C [1] was 101%, the viability, T/C [2] was 102% and the viability, T/C [3] was 96.6%. It also gave a viability, T/C [4] of 94.5%, a viability, T/C [5] of 111% and a viability, T/C [6] of 135%. The viability, T/C [7] was 116%, the viability, T/C [8] was 97.8% and the viability, T/C [9] was 103%. The viability, T/C [10] was 93.3%, the viability, T/C [11] was 140% and the viability, T/C [12] was 149%. The viability, T/C [13] was 99%, the viability, T/C [14] was 102% and the viability, T/C [15] was 105%. It also gave a viability, T/C [16] of 113%, a viability, T/C [17] of 152% and a viability, T/C [18] of 150%. The viability, T/C [19] was 99.1%, the viability, T/C [20] was 103% and the viability, T/C [21] was 110%. It also gave a viability, T/C [22] of 120%, a viability, T/C [23] of 161% and a viability, T/C [24] of 141%. The viability, T/C [25] was 94.2%, the viability, T/C [26] was 95.5% and the viability, T/C [27] was 104%. It also gave a viability, T/C [28] of 93.6%, a viability, T/C [29] of 104% and a viability, T/C [30] of 52.9%. It also gave a viability, T/C [31] of 108%, a viability, T/C [32] of 99% and a viability, T/C [33] of 116%. It also gave a viability, T/C [34] of 96.3%, a viability, T/C [35] of 121% and a viability, T/C [36] of 79.8%.
Work on CC(C)n1c(=O)n(C)c2cnc3cc(F)c(-c4ccc(OCCCN5CCCCC5)nc4)cc3c21 + Cc1[nH]c2ccc(F)cc2c1-c1nc2c3cccnc3c3ncccc3c2[nH]1 yielded an IC50 (second compound 0.0316 µM) of over 10 µM, an IC50 (second compound 0.1 µM) of over 10 µM and an IC50 (second compound 0.316 µM) of over 10 µM. The IC50 (second compound 1 µM) was over 10 µM, the IC50 (second compound 3.16 µM) was 5.04 µM and the IC50 (second compound 10 µM) was 9.55 µM. For the same compound, the viability, T/C [1] was 92.3%, the viability, T/C [2] was 93.3% and the viability, T/C [3] was 91.1%. It also gave a viability, T/C [4] of 96.3%, a viability, T/C [5] of 109% and a viability, T/C [6] of 91.1%. The viability, T/C [7] was 98.2%, the viability, T/C [8] was 89.7% and the viability, T/C [9] was 97.2%. The viability, T/C [10] was 95.9%, the viability, T/C [11] was 113% and the viability, T/C [12] was 96.3%. It also gave a viability, T/C [13] of 92.5%, a viability, T/C [14] of 91.8% and a viability, T/C [15] of 112%. For the same compound, the viability, T/C [16] was 96.7%, the viability, T/C [17] was 106% and the viability, T/C [18] was 90%. For the same compound, the viability, T/C [19] was 89.9%, the viability, T/C [20] was 98.1% and the viability, T/C [21] was 97.8%. It also gave a viability, T/C [22] of 96%, a viability, T/C [23] of 116% and a viability, T/C [24] of 93.7%. For the same compound, the viability, T/C [25] was 83.5%, the viability, T/C [26] was 80.2% and the viability, T/C [27] was 92.7%. It also gave a viability, T/C [28] of 73%, a viability, T/C [29] of 65.2% and a viability, T/C [30] of 29.3%. The viability, T/C [31] was 106%, the viability, T/C [32] was 101% and the viability, T/C [33] was 101%. For the same compound, the viability, T/C [34] was 88.4%, the viability, T/C [35] was 81.2% and the viability, T/C [36] was 47.7%.
Compound CC[C@@]1(O)C(=O)OCc2c1cc1n(c2=O)Cc2cc3c(CN(C)C)c(O)ccc3nc2-1 + Cc1[nH]c2ccc(F)cc2c1-c1nc2c3cccnc3c3ncccc3c2[nH]1 has an IC50 (second compound 0.0316 µM) of 0.0528 µM, an IC50 (second compound 0.1 µM) of 0.0538 µM and an IC50 (second compound 0.316 µM) of 0.0524 µM. The IC50 (second compound 1 µM) was 0.0469 µM, the IC50 (second compound 3.16 µM) was 0.0384 µM and the IC50 (second compound 10 µM) was 0.0461 µM. The viability, T/C (second compound 0.0316 µM, first compound 0.000999 µM) was 109%, the viability, T/C (second compound 0.0316 µM, first compound 0.00316 µM) was 110% and the viability, T/C (second compound 0.0316 µM, first compound 0.00999 µM) was 109%. For the same compound, the viability, T/C [1] was 71.6%, the viability, T/C (second compound 0.0316 µM, first compound 0.0999 µM) was 23.4% and the viability, T/C [3] was 12.9%. It also gave a viability, T/C (second compound 0.1 µM, first compound 0.000999 µM) of 98.5%, a viability, T/C (second compound 0.1 µM, first compound 0.00316 µM) of 105% and a viability, T/C (second compound 0.1 µM, first compound 0.00999 µM) of 111%. For the same compound, the viability, T/C [7] was 73.3%, the viability, T/C (second compound 0.1 µM, first compound 0.0999 µM) was 23.7% and the viability, T/C [9] was 14%. The viability, T/C (second compound 0.316 µM, first compound 0.000999 µM) was 109%, the viability, T/C (second compound 0.316 µM, first compound 0.00316 µM) was 108% and the viability, T/C (second compound 0.316 µM, first compound 0.00999 µM) was 114%. The viability, T/C [13] was 69.9%, the viability, T/C (second compound 0.316 µM, first compound 0.0999 µM) was 25.9% and the viability, T/C [15] was 13.6%. It also gave a viability, T/C (second compound 1 µM, first compound 0.000999 µM) of 118%, a viability, T/C (second compound 1 µM, first compound 0.00316 µM) of 107% and a viability, T/C (second compound 1 µM, first compound 0.00999 µM) of 125%. The viability, T/C [19] was 65.4%, the viability, T/C (second compound 1 µM, first compound 0.0999 µM) was 27.4% and the viability, T/C [21] was 13.8%. For the same compound, the viability, T/C (second compound 3.16 µM, first compound 0.000999 µM) was 92.7%, the viability, T/C (second compound 3.16 µM, first compound 0.00316 µM) was 88.1% and the viability, T/C (second compound 3.16 µM, first compound 0.00999 µM) was 86.4%. It also gave a viability, T/C [25] of 51.6%, a viability, T/C (second compound 3.16 µM, first compound 0.0999 µM) of 30.7% and a viability, T/C [27] of 16.3%. For the same compound, the viability, T/C (second compound 10 µM, first compound 0.000999 µM) was 92.2%, the viability, T/C (second compound 10 µM, first compound 0.00316 µM) was 101% and the viability, T/C (second compound 10 µM, first compound 0.00999 µM) was 105%. It also gave a viability, T/C [31] of 62.9%, a viability, T/C (second compound 10 µM, first compound 0.0999 µM) of 26.1% and a viability, T/C [33] of 14.6%.
